Measurements reported in PubChem BioAssay AID588772 (The Scripps Research Institute Molecular Screening Center, 2011).
Activity calls are given as the source filed them. How the calls were made is not given here.

The compounds below were run on 3C-like protease (3CLpro), SARS coronavirus (assay: SARS 3CLpro protease inhibitors, late-stage follow-up, biochemical, fluorescence, single concentration, set 4 (AID 588772)). Settings: recombinant 3CLpro, fluorogenic substrate cleavage; at 100 µM; stronger effect = higher value.

Row | Compound | inhibition
1 | CC(C)(C)NC(=O)[C@H](c1cccnc1)N(C(=O)c1cnc[nH]1)c1ccc(C(C)(C)C)cc1 | 97.6%
2 | CC(C)(C)NC(=O)C(c1cccnc1)N(C(=O)c1ccco1)c1ccc(-c2ccnc(F)c2)cc1 (stereo not drawn) | 40.3% (inactive)
3 | CC(C)(C)NC(=O)C(c1ccncc1)N(C(=O)c1ccco1)c1ccc(C(C)(C)C)cc1 (stereo not drawn) | 60.2%
4 | CC(C)(C)NC(=O)C(c1cccnc1)N(C(=O)c1ccco1)c1ccc(OCc2ccccc2)cc1 (stereo not drawn) | 53.2%
5 | COc1cccc(Oc2ccc(N(C(=O)c3ccco3)C(C(=O)NC(C)(C)C)c3cccnc3)cc2)c1 (stereo not drawn) | 52%
6 | CC(C)(C)NC(=O)C(c1ccnnc1)N(C(=O)c1ccco1)c1ccc(C(C)(C)C)cc1 (stereo not drawn) | 94.3%
7 | CC(C)(C)NC(=O)C(c1cccnc1)N(C(=O)c1ccco1)c1ccc(-c2ccccc2)cc1 (stereo not drawn) | 94.8%
8 | CC(C)(C)NC(=O)C(c1cnc[nH]1)N(C(=O)c1ccco1)c1ccc(C(C)(C)C)cc1 (stereo not drawn) | 22.8% (inactive)
9 | CC(C)(C)NC(=O)C(c1cccnc1)N(C(=O)c1ccc(C(F)(F)F)o1)c1ccc(C(C)(C)C)cc1 (stereo not drawn) | 17.8% (inactive)
10 | CC(C)(C)c1ccc(N(Cc2cccnc2)C(=O)c2cnc[nH]2)cc1 | 46.8% (inactive)
11 | CC(C)(C)NC(=O)C(c1ccccn1)N(C(=O)c1ccco1)c1ccc(C(C)(C)C)cc1 (stereo not drawn) | 0.7% (inactive)
12 | CC(C)(C)NC(=O)C(c1cccnc1)N(C(=O)c1ccco1)c1ccc(-c2cncnc2)cc1 (stereo not drawn) | 48.6% (inactive)
13 | CC(C)(C)NC(=O)C(c1cnccn1)N(C(=O)c1ccco1)c1ccc(C(C)(C)C)cc1 (stereo not drawn) | 96.2%
14 | Cc1ccc(C(C(=O)NC(C)(C)C)N(C(=O)c2ccco2)c2ccc(C(C)(C)C)cc2)cn1 (stereo not drawn) | -4.1% (inactive)
15 | CC(C)(C)NC(=O)C(c1cccnc1)N(C(=O)c1ccco1)c1ccc(-c2cccc(F)c2F)cc1 (stereo not drawn) | 90.2%
16 | CC(C)(C)NC(=O)C(c1cccnc1)N(C(=O)c1ccco1)c1ccc(-c2cccnc2)cc1 (stereo not drawn) | 64.1%
17 | CC(C)(C)NC(=O)C(c1cn[nH]n1)N(C(=O)c1ccco1)c1ccc(C(C)(C)C)cc1 (stereo not drawn) | 22.7% (inactive)
18 | CC(C)(C)NC(=O)C(c1cccnc1)N(C(=O)c1ccco1)c1ccc(-c2cccn2C(=O)OC(C)(C)C)cc1 (stereo not drawn) | 56.9%
19 | CC(C)(C)NC(=O)C(c1cccnc1)N(C(=O)c1ccco1)c1ccc(I)cc1 (stereo not drawn) | 66.3%
20 | Cn1cnc(C(=O)N(c2ccc(C(C)(C)C)cc2)C(C(=O)NC(C)(C)C)c2cccnc2)c1 (stereo not drawn) | 51.3%
21 | CC(C)(C)NC(=O)C(c1cccnc1)N(C(=O)c1ccco1)c1ccc(Cc2ccccc2)cc1 (stereo not drawn) | 77.6%
22 | CC(C)(C)NC(=O)C(c1cccnc1)N(C(=O)c1ccco1)c1ccc(Oc2ccccc2)cc1 (stereo not drawn) | 40.9% (inactive)
23 | CC(C)(C)NC(=O)C(c1cccnc1)N(C(=O)c1ccco1)c1ccc(-c2ccncc2)cc1 (stereo not drawn) | 27.8% (inactive)
24 | CC(C)(C)NC(=O)C(c1cccnc1)N(C(=O)c1cc2ccccc2o1)c1ccc(C(C)(C)C)cc1 (stereo not drawn) | 14.3% (inactive)
25 | CC(C)(C)NC(=O)C(c1ccn[nH]1)N(C(=O)c1ccco1)c1ccc(C(C)(C)C)cc1 (stereo not drawn) | 6.3% (inactive)
26 | CC(C)(C)NC(=O)C(c1cn[nH]c1)N(C(=O)c1ccco1)c1ccc(C(C)(C)C)cc1 (stereo not drawn) | 16.1% (inactive)
27 | CC(C)(C)NC(=O)[C@@H](c1cccnc1)N(C(=O)c1cnc[nH]1)c1ccc(C(C)(C)C)cc1 | 47.1% (inactive)
28 | Cc1noc(C)c1-c1ccc(N(C(=O)c2ccco2)C(C(=O)NC(C)(C)C)c2cccnc2)cc1 (stereo not drawn) | 85.1%
